Experimental data published in US20250129095A1, “ANNULATED 2-AMINO-3-CYANO THIOPHENES AND DERIVATIVES FOR THE TREATMENT OF CANCER” (Boehringer Ingelheim Int'l GmbH Corp., priority 2021, published 2025).

Assays:
[1] = Metabolic (microsomal) stability assay, human liver microsomes (HLM); format: in vitro ADME; settings: 1 μM, predicted clearance as percent of liver blood flow
Procedure: The metabolic degradation of the test compound is assayed at 37° C. with pooled liver microsomes (mouse (MLM), rat (RLM) or human (HLM)). The final incubation volume of 48 μL per time point contains TRIS buffer (pH 7.5; 0.1 M), magnesium chloride (6.5 mM), microsomal protein (0.5 mg/mL for mouse/rat, 1 mg/mL for human specimens) and the test compound at a final concentration of 1 μM. Following a short preincubation period at 37° C., the reactions are initiated by addition of 12 μL beta-nicotinamide adenine dinucleotide phosphate, reduced form (NADPH, 10 mM) and terminated by transferring an aliquot into solvent after different time points (0, 5, 15, 30, 60 min). Additionally, the NADPH-independent degradation is monitored in incubations without NADPH, terminated at the last time point by addition of acetonitrile. The quenched incubations are pelleted by centrifugation (4,000 rpm, 15 min). An aliquot of the supernatant is assayed by LC-MS/MS to quantify the concentration of parent compound in the individual samples.
In vitro intrinsic clearance (CLint, in vitro) is calculated from the time course of the disappearance of the test drug during the microsomal incubation. Each plot is fitted to the first-order elimination rate constant as C(t)=C0*exp(−ke*t), where C(t) and C0 are the concentration of unchanged test drug at incubation time t and that at preincubation and ke is the disappearance rate constant of the unchanged drug. Subsequently, CLint, in vitro (μL min^−1·amount protein) values are converted to predicted CLint, in vitro (mL min^−1·kg^−1) from incubation parameters according to the equation CLint, in vitro=CLint, in vitro×(incubation volume (ml)/amount protein (mg))×(amount protein (mg)/g liver tissue)×(liver weight/body wt.). For better across species comparison the predicted clearance is expressed as percent of the liver blood flow [% QH](mL min^−1·kg^−1) in the individual species. In general, high stability (corresponding to low % QH) of the compounds across species is desired.

CYP3A4 = molecular target: T1, CYP3A4 (Homo sapiens, UniProt P08684); experiment: Mechanism based inhibition of CYP3A4 assay (MBI 3A4); format: in vitro ADME; settings: human liver microsomes, 25 uM, hydroxy-midazolam formation 30 min vs 0 min preincubation
T1 construct: from tissue; host or cells: human liver microsomes
Procedure: The time dependent inhibition towards CYP3A4 is assayed in human liver microsomes (0.02 mg/mL) with midazolam (15 μM) as a substrate. The test compounds and water control (wells w/o test compound) are preincubated in presence of NADPH (1 mM) with human liver microsomes (0.2 mg/mL) at a concentration of 25 uM for 0 min and 30 min. After preincubation, the incubate is diluted 1:10 and the substrate midazolam is added for the main incubation (15 min). The main incubation is quenched with acetonitrile and the formation of hydroxy-midazolam is quantified via LC/MS-MS. The formation of hydroxy-midazolam from the 30 min preincubation relative to the formation from the 0 min preincubation is used as a readout. Values of less than 100% mean that the substrate midazolam is metabolized to a lower extent upon 30 min preincubation compared to 0 min preincubation. In general low effects upon 30 min preincubation are desired (corresponding to values close to 100%/not different to the values determined with water control).

KRAS G12V Ba/F3 = KRAS G12V Ba/F3 (Homo sapiens, UniProt P01116, G12V, cells depend on it); experiment: Ba/F3 proliferation assay, KRAS G12V; format: cell-based; settings: 72 h, AlamarBlue, read-out: KRAS G12V Ba/F3 IC50
Procedure: Plasmids containing KRASG12 mutants(i.e. G12D, G12C, G12V) are obtained from GeneScript. To generate KRASG12-dependent Ba/F3 models, Ba/F3 cells are transduced with retroviruses containing vectors that harbor KRASG12 isoforms. Platinum-E cells (Cell Biolabs) are used for retrovirus packaging. Retrovirus is added to Ba/F3 cells. To ensure infection, 4 μg/mL polybrene is added and cells are spinfected. […] Cells with an infection efficiency of 10% to 20% are further cultivated and puromycin selection with 1 μg/mL is initiated. As a control, parental Ba/F3 cells are used to show selection status. Selection is considered successful when parental Ba/F3 cells cultures died. To evaluate the transforming potential of KRASG12 mutations, the growth medium is no longer supplemented with IL-3. Ba/F3 cells harboring the empty vector are used as a control. Approximately ten days before conducting the experiments, puromycin is left out.
Compounds are added using an Access Labcyte Workstation with a Labcyte Echo 550 or 555 accoustic dispenser. All treatments are performed in technical duplicates. […] AlamarBlue™ (ThermoFisher), a viability stain, is added and fluorescence measured in the PerkinElmer Envision HTS Multilabel Reader. The raw data are imported into and analyzed with the Boehringer Ingelheim proprietary software MegaLab (curve fitting based on the program PRISM, GraphPad Inc.).

SAS cells = experiment: SAS CTG proliferation assay (120 h) (HNSCC, wt amplified); format: cell-based
Procedure: SAS cells (JCRB0260) are dispensed into 384-well plates, flat and clear bottom (Greiner, PNr. 781091) at a density of 300 cells per well in 60 μL DMEM:F12 (Gibco 31330-038)+10% Fetal Calf Serum (HyClone, PNr.: SH30084.03) and incubated at 37° C. in a CO2 incubator overnight The next day, compounds (10 mM stock in DMSO) are added with the ECHO acoustic liquid handler system (Beckman Coulter), including DMSO controls. Plates are incubated for 120 h, and cell viability is measured using CellTiter-Glo luminescent cell viability reagent (Promega product code G7570). Viability (stated as percent of control) is defined as relative luminescence units RLU of each well divided by the RLU of cells in DMSO controls.

KRAS G12V Ba/F3, sequence (P01116 whole entry G12V, canonical isoform): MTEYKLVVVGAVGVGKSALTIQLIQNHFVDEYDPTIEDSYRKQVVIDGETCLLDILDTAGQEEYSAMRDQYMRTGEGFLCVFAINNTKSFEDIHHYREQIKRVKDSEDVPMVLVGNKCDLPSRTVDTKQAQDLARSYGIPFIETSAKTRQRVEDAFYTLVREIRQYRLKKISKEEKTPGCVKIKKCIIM
T1 sequence (P08684 whole entry): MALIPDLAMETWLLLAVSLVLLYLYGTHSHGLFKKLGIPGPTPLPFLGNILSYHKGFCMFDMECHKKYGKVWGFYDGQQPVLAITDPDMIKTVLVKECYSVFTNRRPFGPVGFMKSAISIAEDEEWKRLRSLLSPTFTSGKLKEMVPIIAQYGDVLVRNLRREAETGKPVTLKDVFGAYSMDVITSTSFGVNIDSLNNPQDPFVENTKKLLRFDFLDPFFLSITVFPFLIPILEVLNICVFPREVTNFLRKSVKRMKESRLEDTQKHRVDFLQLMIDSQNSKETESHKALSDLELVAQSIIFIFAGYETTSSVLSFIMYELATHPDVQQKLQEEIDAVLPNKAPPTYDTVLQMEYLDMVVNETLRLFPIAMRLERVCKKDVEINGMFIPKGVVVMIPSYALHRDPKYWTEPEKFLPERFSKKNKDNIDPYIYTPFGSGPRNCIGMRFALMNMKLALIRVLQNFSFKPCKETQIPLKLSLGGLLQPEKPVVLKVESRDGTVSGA

| SMILES | HLM QH [%] [1] | MBI 3A4 [%] (CYP3A4) | GI50 (KRAS G12V Ba/F3) | IC50 (SAS cells) |
| --- | --- | --- | --- | --- |
| C[C@H](Oc1cc(Oc2nccs2)nc(-c2noc3c2CCC[C@@]32CCCc3sc(N)c(C#N)c32)n1)[C@@H]1CCCN1C [II-2] | 46% | 40% | 4 nM | 44 nM |
| C[C@H](Oc1cc(N[C@H]2CCOC2)nc(-c2onc3c2CCC[C@@]32CCCc3sc(N)c(C#N)c32)n1)[C@@H]1CCCN1C [Example I-4] | 26% | – | 46 nM | 719 nM |
| C[C@H](Oc1cc(Oc2cccnc2)nc(-c2onc3c2CCC[C@@]32CCCc3sc(N)c(C#N)c32)n1)[C@@H]1CCCN1C [Example I-2] | 70% | – | 2 nM | 15 nM |
| C[C@H](Oc1cc(O[C@H]2CCOC2)nc(-c2noc3c2CCC[C@@]32CCCc3sc(N)c(C#N)c32)n1)[C@@H]1CCCN1C [II-4] | 59% | 58% | 6 nM | 44 nM |
| COC[C@H](C)Nc1cc(O[C@@H](C)[C@@H]2CCCN2C)nc(-c2onc3c2CCC[C@@]32CCCc3sc(N)c(C#N)c32)n1 [Example I-5] | <24% | 61% | 67 nM | – |
| C[C@H](Oc1cc(Sc2ncccn2)nc(-c2onc3c2CCC[C@@]32CCCc3sc(N)c(C#N)c32)n1)[C@@H]1CCCN1C [Example I-7] | 38% | – | 31 nM | 221 nM |
| C[C@H](Oc1cc(Oc2ccon2)nc(-c2noc3c2CCC[C@@]32CCCc3sc(N)c(C#N)c32)n1)[C@@H]1CCCN1C [II-3] | 70% | – | 9 nM | 67 nM |
| C[C@H](Oc1cc(Oc2cncnc2)nc(-c2noc3c2CCC[C@@]32CCCc3sc(N)c(C#N)c32)n1)[C@@H]1CCCN1C [II-1] | <24% | – | 4 nM | 20 nM |
| C[C@H](Oc1cc(OCC2(N(C)C)COC2)nc(-c2onc3c2CCC[C@@]32CCCc3sc(N)c(C#N)c32)n1)[C@@H]1CCCN1C [Example I-8] | 30% | 77% | 85 nM | 51 nM |
| C[C@H](Oc1cc(Oc2nccs2)nc(-c2onc3c2CCC[C@@]32CCCc3sc(N)c(C#N)c32)n1)[C@@H]1CCCN1C [Example I-1] | 44% | – | 3 nM | 19 nM |
| C[C@H](Oc1cc(Oc2cncnc2)nc(-c2onc3c2CCC[C@@]32CCCc3sc(N)c(C#N)c32)n1)[C@@H]1CCCN1C [Example I-3] | 69% | – | 2 nM | 14 nM |
| C[C@H](Oc1cc(Nc2ccccn2)nc(-c2onc3c2CCC[C@@]32CCCc3sc(N)c(C#N)c32)n1)[C@@H]1CCCN1C [Example I-6] | <24% | – | 14 nM | 81 nM |

The next lines start with results.

| HLM QH [%] [1] | MBI 3A4 [%] (CYP3A4) | GI50 (KRAS G12V Ba/F3) | SMILES | IC50 (SAS cells) |
| --- | --- | --- | --- | --- |
| 41% | 64% | 11 nM | C[C@H](Oc1cc(Nc2cccnn2)nc(-c2noc3c2CCC[C@@]32CCCc3sc(N)c(C#N)c32)n1)[C@@H]1CCCN1C [II-18] | 171 nM |
| 72% | – | 3 nM | C[C@H](Oc1cc(Oc2cnccn2)nc(-c2noc3c2CCC[C@@]32CCCc3sc(N)c(C#N)c32)n1)[C@@H]1CCCN1C [II-7] | 1390 nM |
| 42% | 48% | 11 nM | C[C@H](Oc1cc(Nc2ccccn2)nc(-c2noc3c2CCC[C@@]32CCCc3sc(N)c(C#N)c32)n1)[C@@H]1CCCN1C [II-16] | – |
| <24% | – | 303 nM | C[C@H](Oc1cc(N(C)CCN(C)C)nc(-c2noc3c2CCC[C@@]32CCCc3sc(N)c(C#N)c32)n1)[C@@H]1CCCN1C [II-20] | 327 nM |
| 31% | 69% | 7 nM | COCCOc1cc(O[C@@H](C)[C@@H]2CCCN2C)nc(-c2noc3c2CCC[C@@]32CCCc3sc(N)c(C#N)c32)n1 [II-5] | 67 nM |
| 37% | – | 297 nM | CO[C@@H]1C[C@@H]([C@H](C)Oc2cc(O[C@@H]3CNC3(C)C)nc(-c3noc4c3CCC[C@@]43CCCc4sc(N)c(C#N)c43)n2)N(C)C1 [II-30] | 267 nM |
| 26% | 65% | 2040 nM | C[C@H]1CN(C)CCCN1c1cc(O[C@@H]2CNC2(C)C)nc(-c2noc3c2CCC[C@@]32CCCc3sc(N)c(C#N)c32)n1 [II-28] | 4450 nM |
| 28% | – | 65 nM | C[C@H](Oc1cc(O[C@@H]2CNC[C@@H]2F)nc(-c2noc3c2CCC[C@@]32CCCc3sc(N)c(C#N)c32)n1)[C@@H]1CCCN1C [II-29] | 1050 nM |
| 53% | 78% | 35 nM | C[C@H](Oc1cc(OCC2(N(C)C)COC2)nc(-c2noc3c2CCC[C@@]32CCCc3sc(N)c(C#N)c32)n1)[C@@H]1CCCN1C [II-22] | 84 nM |
| <24% | – | 11 nM | C[C@H](Oc1cc(Nc2nccs2)nc(-c2noc3c2CCC[C@@]32CCCc3sc(N)c(C#N)c32)n1)[C@@H]1CCCN1C [II-12] | 594 nM |
| <24% | 52% | 10 nM | C[C@H](Oc1cc(Nc2ncco2)nc(-c2noc3c2CCC[C@@]32CCCc3sc(N)c(C#N)c32)n1)[C@@H]1CCCN1C [II-13] | 46 nM |
| <24% | – | 151 nM | C[C@H](Oc1cc(O[C@H]2CN(C)C(C)(C)C2)nc(-c2noc3c2CCC[C@@]32CCCc3sc(N)c(C#N)c32)n1)[C@@H]1CCCN1C [II-19] | 297 nM |
| 37% | – | 230 nM | C[C@H](Oc1cc(O[C@@H]2CNC2(C)C)nc(-c2noc3c2CCC[C@@]32CCCc3sc(N)c(C#N)c32)n1)[C@@H]1C[C@@H](F)CN1C [II-31] | 402 nM |
| 36% | – | 29 nM | C[C@H](Oc1cc(NCC2COC2)nc(-c2noc3c2CCC[C@@]32CCCc3sc(N)c(C#N)c32)n1)[C@@H]1CCCN1C [II-11] | 21 nM |
| <24% | – | 43 nM | C[C@H](Oc1cc(N(C)C)nc(-c2noc3c2CCC[C@@]32CCCc3sc(N)c(C#N)c32)n1)[C@@H]1CCCN1C [II-10] | 795 nM |
| <24% | – | 869 nM | C[C@H](Oc1cc(O[C@H]2CNC(C)(C)C2)nc(-c2noc3c2CCC[C@@]32CCCc3sc(N)c(C#N)c32)n1)[C@@H]1CCCN1C (single isomer, unassigned) [II-8] | 2600 nM |
